Measurements as given in US20210386829A1, “COMPOSITIONS AND METHODS FOR MODULATING CGRP SIGNALING TO REGULATE INNATE LYMPHOID CELL INFLAMMATORY RESPONSES” (The Broad Institute, Inc., priority 2018, published 2021).
“And” between values parts separate entries of the source, which are not always exact repeats. Equal values may be shown once. “Also recorded” adds a separate entry of the source.

Experiments:
lung ILC2s = test: expression profiles (RNA-seq) of lung ILC2s cultured with CGRP, IL-33 or both; assay type: cell-based, mouse
Description: RNA-Seq. For population (bulk) RNA-seq, sorted ILCs were lysed with RLT Plus buffer and RNA was extracted using the RNeasy Plus Mini Kit (Qiagen). Full-length RNA-seq libraries were prepared as previously described (Singer, M. et al. A Distinct Gene Module for Dysfunction Uncoupled from Activation in Tumor-Infiltrating T Cells. Cell 166, 1500-1511 e1509, doi:10.1016/j.cell.2016.08.052 (2016). and paired-end sequenced (75 bp×2) with a 150 cycle Nextseq 500 high output V2 kit.
Culture of innate lymphoid cells. Sort-purified innate lymphoid cells (ILCs) were cultured under sterile conditions in complete medium in a humidified incubator at 37° C. and 10% CO2. ILCs were plated at a density of 3,000-5,000 ILCs per well in a 96 well round-bottom plate in cell culture medium with 20 ng/ml IL-7. Depending on the experiment, different combinations of 200 ng/ml IL-25, 200 ng/ml IL-33, 1 ug/ml NMU and 100 nM CGRP were added either at start or after overnight culture with 20 ng/ml IL-7. After 6 hours or 3 days, culture supernatant was removed and frozen at −20° C. and ILCs were lysed in Extraction Buffer (PicoPure RNA isolation Kit; Thermo Fisher Scientific), incubated at 42° C. for 30 min and frozen at −80° C.

[1] = test system: IL-33-induced airway inflammation; test: IL-33-induced airway inflammation, intranasal co-administration of CGRP; assay type: in vivo, mouse
Source text: Mice and in vivo ILC activation. C57B1/6J mice were purchased from the Jackson Laboratory. Nmur1-LacZ reporter mice with a LacZ cassette knocked into the Nmur1 locus were rederived from Nmur1^tm1.1(KOMP)Vlcg sperm obtained from the trans-NIH Knock-Out Mouse Project (KOMP) Repository. NMU-deficient mice (NMU-KO) were rederived from B6.129S2-Nmu<tm1Mko> embryos from the RIKEN BioResource Center. For experiments with Nmur1-LacZ (Nmur1-KO) and NMU-KO mice, littermates that were either homozygous or heterozygous for the wild type allele were used as controls. Mice were housed under specific-pathogen-free conditions. For experiments, mice were matched for sex and age, and most mice were 6-10 weeks old. Where indicated, mice were anesthetized with Isoflurane and treated intranasally with the indicated stimuli (500 ng IL-25, 500 ng IL-33, or 20 μg Neuromedin U) daily for three consecutive days. The total administered volume was 20 μl for all conditions. Mice were randomly assigned to treatment groups after matching for sex and age. […] Mice were treated intranasally with 10 μg HDM on day 0, 7, 8, and 9, prior to sacrifice on day 10. All experiments were conducted in accordance with animal protocols approved by the Harvard Medical Area Standing Committee on Animals or BWH IACUC.
Lung analysis. Mice were sacrificed and perfused with cold PBS. Where indicated, after perfusion, broncho-alveolar lavage (BAL) was obtained by injecting 1.5 ml cold PBS into the lungs via a secured tracheal cannula. BALF was centrifuged, and the supernatant was used for analyzing cytokine levels and the cell pellet was resuspended, counted, and used for flow cytometry. Following BAL, lung lobes were dissected. The post-caval lobe was fixed in buffered formalin for histological analysis. Single cell suspensions of the remaining lung parenchymal tissue were prepared with the GentleMACS lung dissociation kit (Miltenyi Biotec) according to the manufacturer's instructions. Where indicated, cells were diluted in 10% Trypan Blue and viable cells counted using a hemocytometer.
Histology. Following paraffin embedding, sections of the formalin-fixed lung lobe were stained by H&E staining. Tissue sections were scored by a histopathologist in a blinded manner for severity of lung inflammation according to the following scoring system: 0=normal, 1=very mild, 2=mild, 3=moderate or 4=severe.
Methacholine challenge. Airway hyperresponsiveness was determined as previously described (Talbot, S. et al. Silencing Nociceptor Neurons Reduces Allergic Airway Inflammation. Neuron 87, 341-354, doi:10.1016/j.neuron.2015.06.007 (2015)) using a flexiVent rodent ventilator (SciReq).
Cytokine-induced airway inflammation. Mice received nasally 500 ng IL-25, 500 ng IL-33, 20 ug NMU or 6.65 ug CGRP diluted in DPBS for three consecutive days. For nasal administration, mice were lightly anesthetized with Isoflurane (Cat #07-893-1389; Patterson Veterinary). For induction of inflammatory ILC2s, mice received intraperitoneally 500 ng IL-25 for three consecutive days. One day after the last treatment, mice were euthanized and perfused with 8 ml cold PBS via the right heart ventricle. After exposure of the trachea, a small incision was made at the top of the trachea and a curved gavage needle was inserted. Lungs were washed with 1.5 ml cold PBS via the needle and the retrieved bronchoalveolar lavage fluid was centrifuged at 1300 rpm for 5 min at 4 C. After centrifugation, the supernatant was frozen at −20° C. and the cell pellet was resuspended in 250 ul complete medium and stored on ice until flow cytometric analysis. The post-caval lung lobe was transferred into 10% buffered formalin and stored at room temperature until paraffin embedding for histological analysis. […]

[2] = IL-33+CGRP vs IL-33 alone, intranasal, three consecutive days

## CGRP: neuropeptide calcitonin gene-related peptide (encoded by Calca), ligand of the Ramp1/Calcrl receptor; given at 100 nM in vitro, 6.65 ug nasally
Lung ILC2s; CGRP alone vs CGRP+IL-33
  differentially expressed genes of CGRP alone shared with CGRP+IL-33 treatment: 112 genes
Lung ILC2s; CGRP treatment alone
  genes associated with cell cycle progression (Mki67, Birc5, Kdm8): down-regulated
Lung ILC2s; CGRP treatment alone (IL-7+CGRP vs IL-7)
  number of differentially expressed genes: 331 genes
Lung ILC2s; IL-33+CGRP vs IL-33
  Il13 and Arg1 expression (effector ILC2 genes): significantly down-regulated
  genes associated with negative regulation of effector T cell responses (Pdcd1, Havcr2, Lilrb4, Entpd1, Tnfrsf18, FoxP3, Nfil3, Nr3c1, Fgl2): upregulated
Lung ILC2s; IL-33+CGRP vs IL-33, 3 days
  number of differentially expressed genes up-regulated in the presence of CGRP: 635 genes
Lung ILC2s; IL-33+CGRP vs IL-33, 3 days, P<0.05, fold change >1.5
  number of differentially expressed genes: > 900 genes and 946 genes
Lung ILC2s; with CGRP, confirmed by qPCR
  Ramp3 and Calca expression in ILC2s: upregulated
[1]; CGRP alone vs PBS-treated control mice
  lung histology (H&E): histologically identical
[1]; CGRP alone vs PBS-treated mice
  frequency or total number of lung-resident ILCs: did not alter
[1]; IL-33+CGRP vs IL-33 alone
  IL-33-induced perivascular and peribronchial lymphocytic infiltrates in lung sections (H&E, blinded score): markedly inhibited
  airway hyperreactivity (airway resistance, methacholine challenge): less airway hyperreactivity
  frequency of IL-5- and IL-13-positive ILCs: significantly reduced
  frequency of Ki67+ lung ILCs: decreased frequencies
  lung ILC frequencies and numbers: significantly reduced
[1]; [2]
  IL-5 and IL-13 protein in BALF (lung homogenates and BALF): lower; also recorded: reduced; also recorded: greatly diminished
  eosinophil frequency in lungs and BALF: significantly reduced; also recorded: significantly decreased
  eosinophil numbers in lung (lung and BALF): significantly reduced; also recorded: significantly decreased
[1]; IL-33+CGRP vs IL-33 alone, intranasal, three consecutive days, analysed one day later
  Il5 and Il13 RNA expression in lung tissue (qPCR): significantly reduced
